In US20070161542A1, “Ptb1b photoprobes” (priority 2003, published 2007):

Columns and labels:
Assay type in all cases: biochemical
Flag-PTP1B(1-320) = biological target: T1, Flag-PTP1B(1-320) (Homo sapiens, UniProt P18031); assay: Enzyme kinetic assay (DiFMUP), Flag-PTP1B; details: for IC50 shift in the presence of 0.1% protein: 0.1% protein (HSA) vs none; for IC50: in the dark; for Ki: non-irradiated probes, competitive, reversible inhibitors of PTP1B
T1 construct: Flag-PTP1B (residues 1-320 as a flag fusion); made in house
T1 sequence (P18031 1-320): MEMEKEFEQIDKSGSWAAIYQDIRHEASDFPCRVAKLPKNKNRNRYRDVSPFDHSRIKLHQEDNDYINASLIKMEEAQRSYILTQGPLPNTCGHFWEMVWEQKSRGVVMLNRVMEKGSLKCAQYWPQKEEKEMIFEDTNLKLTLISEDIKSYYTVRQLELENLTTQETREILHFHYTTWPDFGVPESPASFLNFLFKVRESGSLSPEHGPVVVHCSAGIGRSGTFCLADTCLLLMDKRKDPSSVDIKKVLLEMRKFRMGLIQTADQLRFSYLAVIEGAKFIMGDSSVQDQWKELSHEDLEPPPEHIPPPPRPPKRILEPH
Excerpt: (§1) Protein tyrosine phosphatases used in this study were expressed and purified using published procedures, as follows: (a) Flag-PTP1B (residues 1-320 as a flag fusion), Huyer et al. (29). (b) Flag-TCPTP (residues 1-281 as a flag fusion), Asante-Appiah et al. (30). (c) Flag-CD45 (residues 556-1268 as a flag fusion), Wang et al. (31). (d) Mutant C215S-PTP1B (residues 1-320 as a gst fusion), Skorey et al. (28). (e) Infected SF9 cell lysate expressing full-length PTP1B (as a flag fusion), Cromlish et al. (25). For studies using H2O2-inactivated Flag-PTP1B, 100 μl of 2 μg/ml PTP1B was incubated with 100 μl of 1 mM or 20 mM H2O2 for 15 min to obtain 50% or 100% inactivated enzyme respectively as determined by the enzyme kinetic assay.
Kinetic measurements were performed using a Spectromax Gemini fluorescent plate reader (Molecular Devices, Sunnyvale, Calif.) in a 96-well plate format. Briefly, to 170 μl of BisTris buffer (50 mM BisTris, with and without 150 mM NaCl, 2 mM EDTA, 5 mM DMH, pH 6.3) containing 0-100 μM DiFMUP with or without 0.1% human serum albumin was added 10 μl of 10 or 50 μM photoprobe in water in a three-fold serial dilution. The reaction was initiated by the addition of 20 μl of 0.04 μg/ml Flag-PTP1B, Flag-TCPTP (0.04 μg/ml) or Flag-CD45 (0.01 μg/ml) in BisTris buffer containing 20% glycerol and 0.01% Triton X-100. The conversion of DiFMUP to DiFMU was monitored continuously for 5 min with excitation at 360 nm and emission at 450 nm (cutoff filter at 435 nm). IC50 values were calculated by nonlinear regression fit of the initial rates versus inhibitor concentration obtained using 10 μM DiFMUP using the Softmax Pro software (version 3.11, Molecular Devices). Ki values were determined by non-linear regression fit of the initial rates versus substrate concentration at various inhibitor concentrations using the kinetic equation software from Grafit software (Erithacus Software).

Flag-TCPTP = biological target: T2, Flag-TCPTP (Homo sapiens, UniProt P17706); assay: Enzyme kinetic assay (DiFMUP), Flag-TCPTP; details: in the dark, 10 μM DiFMUP
T2 construct: Flag-TCPTP (residues 1-281 as a flag fusion); made in house
T2 sequence (P17706 1-281): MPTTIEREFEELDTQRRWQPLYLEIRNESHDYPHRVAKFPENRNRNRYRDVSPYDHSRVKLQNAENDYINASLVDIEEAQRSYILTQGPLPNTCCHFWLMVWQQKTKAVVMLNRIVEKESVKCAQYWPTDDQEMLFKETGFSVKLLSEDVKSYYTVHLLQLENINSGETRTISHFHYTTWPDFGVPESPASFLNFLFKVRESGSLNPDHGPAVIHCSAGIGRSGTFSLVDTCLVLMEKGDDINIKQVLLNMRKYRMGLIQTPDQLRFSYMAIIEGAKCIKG
Excerpt: as §1
(§2) Kinetic measurements were performed using a Spectromax Gemini fluorescent plate reader (Molecular Devices, Sunnyvale, Calif.) in a 96-well plate format. […] The conversion of DiFMUP to DiFMU was monitored continuously for 5 min with excitation at 360 nm and emission at 450 nm (cutoff filter at 435 nm). […] Ki values were determined by non-linear regression fit of the initial rates versus substrate concentration at various inhibitor concentrations using the kinetic equation software from Grafit software (Erithacus Software).

Flag-CD45 = biological target: T3, Flag-CD45 (Mus musculus, UniProt P06800); assay: Enzyme kinetic assay (DiFMUP), Flag-CD45; details: Flag-CD45, in the dark, 10 μM DiFMUP
T3 construct: Flag-CD45 (residues 556-1268 as a flag fusion); made in house
T3 sequence (P06800 581-1293 limits assumed): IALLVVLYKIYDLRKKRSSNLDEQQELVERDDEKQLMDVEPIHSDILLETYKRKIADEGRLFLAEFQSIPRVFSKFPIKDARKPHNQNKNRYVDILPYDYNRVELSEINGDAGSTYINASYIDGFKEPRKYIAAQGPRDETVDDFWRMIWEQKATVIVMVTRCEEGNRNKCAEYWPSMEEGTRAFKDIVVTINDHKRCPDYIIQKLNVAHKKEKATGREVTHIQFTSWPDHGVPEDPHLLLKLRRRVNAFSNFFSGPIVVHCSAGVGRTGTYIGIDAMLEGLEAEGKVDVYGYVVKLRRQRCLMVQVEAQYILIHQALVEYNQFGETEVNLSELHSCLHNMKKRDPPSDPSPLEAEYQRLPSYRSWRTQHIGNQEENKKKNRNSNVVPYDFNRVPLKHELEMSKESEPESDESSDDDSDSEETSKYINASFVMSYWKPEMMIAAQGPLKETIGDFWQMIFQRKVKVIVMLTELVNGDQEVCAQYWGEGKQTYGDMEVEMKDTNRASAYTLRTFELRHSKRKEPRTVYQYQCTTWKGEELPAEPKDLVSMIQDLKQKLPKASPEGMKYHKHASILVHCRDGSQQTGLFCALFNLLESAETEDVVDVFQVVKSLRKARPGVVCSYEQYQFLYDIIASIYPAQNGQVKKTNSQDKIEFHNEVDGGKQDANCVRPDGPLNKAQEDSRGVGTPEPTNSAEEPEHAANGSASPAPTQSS
Excerpt: as §1, §2

[1] = Flag-PTP1B(1-320), 10 μM DiFMUP

SMILES: NC(=O)[C@H](Cc1ccc(C(F)(F)P(=O)(O)O)c(Br)c1)NC(=O)[C@H](Cc1ccc(C(F)(F)P(=O)(O)O)c(Br)c1)NC(=O)c1cc(I)cc(C2(C(F)(F)F)N=N2)c1 [Example 1, Tetraamnionium 3-bromo-4-(difluoro(phosphonato)methyl)-N-(3-iodo-5-(3-(trifluoromethyl)-3H-diaziren-3-yl)benzoyl)-L-phenylalanyl-3-bromo-4-(difluoro(phosphonato)methyl)-L-phenylalaninamide]
- IC50 shift in the presence of 0.1% protein (Flag-PTP1B(1-320)): 7 fold
- IC50 (Flag-PTP1B(1-320); Fla-PTP1B + 0.1% HSA): 1.5 nM
- IC50 (Flag-PTP1B(1-320); [1]): 0.2 nM
- Ki (Flag-PTP1B(1-320)): 0.1 nM
- IC50 (Flag-TCPTP): 0.1 nM
- IC50 (Flag-CD45): 0.49 µM

SMILES: NC(=O)[C@H](Cc1ccc(C(F)(F)P(=O)(O)O)cc1)NC(=O)[C@H](Cc1ccc(C(F)(F)P(=O)(O)O)cc1)NC(=O)c1cc(I)cc(C2(C(F)(F)F)N=N2)c1 [Example 9, 4-(Difluoro(phosphono)methyl)-N-(3-iodo-5-(3-(trifluoromethyl)-3H-diaziren-3-yl)benzoyl)-L-phenylalanyl-4-(difluoro(phosphono)methyl)-L-phenylalaninamide]
- IC50 shift in the presence of 0.1% protein (Flag-PTP1B(1-320)): not significantly affected
- IC50 (Flag-PTP1B(1-320); Fla-PTP1B + 0.1% HSA): 14 nM
- IC50 (Flag-PTP1B(1-320); [1]): 11 nM
- Ki (Flag-PTP1B(1-320)): 5 nM
- IC50 (Flag-TCPTP): 6 nM
- IC50 (Flag-CD45): 12.6 µM
